Data set [1] has as its target T1, p38alpha (Homo sapiens, UniProt Q16539).
T1 construct: purchased Invitrogen PV3305
In words: p38 cascade kinase reaction (inactive p38alpha, MKK6, ATF2, ADP-Glo). It counts as biochemical. As to conditions: read-out: inhibition p38a/ATF-2 (p38 cascade); for inhibition at 100 µM: compound 100 μM; for inhibition at 10 µM: compound 10 μM. The protocol: Purified recombinant activated p38alpha (10 nM)(ProQinase) was preincubated 10 minutes at 30° C. with the compound of interest at concentrations between 1 and 100 µM in duplicate in a final volume of 30 ul of kinase buffer (Hepes 60 mM pH 7.5, MgCl2 3 mM, MnCl2 3 mM, Sodium Orthovanadate 3 μM, DTT 1.2 mM). After preincubation, peptide substrate (SignalChem #P03-58) and ATP were added to a final concentration of 10 μM and 100 μM respectively, and then incubated 40 minutes at 30° C. for the kinase reaction. Phosphorylation was analyzed with ADP-GloM (Promega #V9101) and emitted luminescence was measured with BMG Fluostar microplate reader.
(§1) After preincubation, MKK6 (ProQinase), ATF2 (ProQinase) and ATP were added to a final concentration of 10 nM, 5 μM and 10 μM respectively, then incubated 40 minutes at 30° C. and analyzed with ADP-Glo™.
(ADP-Glo turns the ADP formed in a reaction into a luminescent signal.)

In data set [2] the test system is Fibroblast-like synoviocytes (FLS) from patients with rheumatoid arthritis. In words: inflammatory mediators (IL6, IL8, MCP-1) by ELISA in FLS stimulated with TNF-alpha. It counts as cell-based, human. The note with it: synoviocytes, TNFa + compound 100 uM. The protocol:
Fibroblast-like synoviocytes (FLS) from patients with rheumatoid arthritis (RA) were obtained at the time of synovectomy or joint replacement. All RA patients fulfilled the American College of Rheumatology […] criteria for the diagnosis of RA (Arnett FC y cols. 1988 Arthritis Rheum 31(3):315-24).
Synovial tissue was minced and incubated with 10 μg/ml collagenase in serum-free Dulbecco modified Eagle medium (DMEM; Gibco Invitrogen, Barcelona, Spain) for 3 h at 37° C. After digestion, FLS were filtered through a nylon cell strainer (BD Falcon, Franklin Lakes, USA), washed extensively, and cultured in DMEM supplemented with 10% v/v fetal calf serum, 1% penicillin-streptomycin, and 1% L-glutamine (all reagents from PAA, Laboratories GmbH) in a humidified 5% C02 atmosphere. Adherent cells at 80-90% confluence were trypsinised and diluted at a split ratio of 1:3. FLS from 4 patients and between passages 3 to 8 were used for all experiments.
Enzyme-Linked Immunosorbent Assay (ELISA): RA FLS (1×10^4 cells/well) were cultured in DMEM 1% FCS in 96 well plates and treated with p-p38 inhibitors for 1 h. After, they were stimulated with TNF-α (10 ng/ml, Sigma Aldrich) and both treatments were present in the culture throughout the experiment. The supernatants were harvested at 18 h after treatment and assayed for IL6, IL8/CXCL8 and monocyte chemoattractant protein (MCP)-1/CCL2 by ELISA according to the manufacturer's instructions (BD Bioscience, San Jose, Calif., USA).
On the technique in general: In an ELISA, binding on a coated surface is turned into a signal by an enzyme label.

Data set [3] has as its target T2, p38αR186A (Homo sapiens, UniProt Q16539, R186A).
T2 construct: made in house; host or cells: E. coli XL10-Gold
In words: site-mutated p38 phosphorylation cascade assay, R186A mutant. Type of data set: biochemical. As to conditions: compound 10 uM. The protocol: as §1
(§2) Replacement of specific residues arginine 186 and 189 of p38α (pGEX4T-1-p38α) for alanine was performed with the QuikChange Lightining Site-Directed Mutagenesis Kit (Agilent Technologies). The following oligonucleotides were used for the arginine 186 to alanine substitution: forward primer: 5′-SEQ ID NO 7-3′; reverse primer: 5′-SEQ ID NO 8-3′. Oligonucleotides used for the arginine 189 to alanine substitution were: forward primer: 5′-SEQ ID NO 9-3′; reverse primer: 5′-SEQ ID NO 10-3′. Mutations were validated by sequencing (Genomic Unit, Parque Cientifico de Madrid). E. coli XL10-Gold ultracompentent cells (Agilent Technologies) were transformed with the vector plasmids containing p38αWT and mutants. For the expression of recombinant p38α transformed cells were cultured overnight at 37° C. in 50 ml of fresh LB medium containing ampicillin (100 μg/ml). After that, culture was diluted in fresh LB to A595=0.4 and grown for approximately 1 h at 37° C. until exponential growth and then induced with Isopropyl-β-D-thiogalactopyranoside (IPTG) 1 mM for 5 h. The cells were collected by centrifugation and cell pellet were resuspended in 50 ml of cold lysis buffer: PBS pH 7.4, EDTA 10 mM, PMSF 1 mM, Benzamidine 0.2 mM, DTT 5 mM, Triton X-100 1% and Lysozyme 1 mg/ml. The soluble and insoluble fractions were separated by centrifugation (16,000 g for 20 min). The soluble fraction was incubated for 2 hours with 1 ml of pre-equilibrated Glutathione Sepharose 4B (GE Healthcare) and the resin was extensively washed in a column with 200 ml of binding buffer: PBS, PMSF 1 mM and benzamidine 0.2 mM. Proteins were eluted with 1 ml of Tris-HCl 50 mM pH 8.0 and reduced glutathione 20 mM. 20% glycerol was added to purified proteins and stored at −80° C. Protein concentration and purity was assessed by SDS-PAGE. Kinase activity was measured by ADP-glo kit using MKK6 as activator and ATF2 as substrate. Activity recorded for p38αR186A and p38αR189A were 15.5% and 4.8%, respectively (n=4) related to wild type protein.

The subject of data set [4] is TNF-α secretion, THP-1 cells. In words: Inhibition of TNF-α secretion by LPS-stimulated THP-1. Type of data set: cell-based. The note with it: Homo sapiens, THP-1, 3 h, monocytes with LPS, read-out: TNF abetment. As for the experimental part: Inhibition of TNF-α Secretion by a Human Monocytic Cell Line, THP-1.
THP-1 cells, growing in log phase, were collected by centrifugation and resuspended in RPMI 1640 (Sigma Aldrich), to a final cell concentration of 2×10^6 cells/ml. Cells were plated into 24-well plates (BD Biosciences). Dilutions of compounds in dimethyl sulfoxide (DMSO) were added to the culture to a final concentration M. The final DMSO concentration was 0.5%. The cells […] suspensions were preincubated with compounds for 1 h at 37° C. in a 5% C02 humidified atmosphere before the addition of LPS (Sigma Aldrich, L2654) to a final concentration of 2 μg/ml. After that, cells were incubated for 3 h followed by centrifugation to pellet cells. Cell supernatants were stored at 4° C. until Human analysis for TNF-α content. TNF-α levels were determined by ELISA (TNF Biotrak, GE Healthcare) following the manufacturer's directions. The percentage inhibition was calculated for each compound concentration tested, and the IC50 was calculated for each compound.

The target of data set [5] is T3, p38alpha wt (Homo sapiens, UniProt Q16539).
T3 construct: made in house; host or cells: E. coli XL10-Gold
Kind of data set: site-mutated p38 phosphorylation cascade assay, wild type. As to conditions: compound 10 uM. It counts as biochemical. As for the experimental part:
as §1, §2

The test system of data set [6] is THP-1 cells. Kind of data set: survival of monocytes with LPS. It counts as cell-based, human.
The target in data set [7] is T4, p38αR189A (Homo sapiens, UniProt Q16539, R189A).
T4 construct: made in house; host or cells: E. coli XL10-Gold
In words: site-mutated p38 phosphorylation cascade assay, R189A mutant. It counts as biochemical. As to conditions: compound 10 uM. The protocol:
as §1, §2

For data set [8], the target named is p38αR189A (Homo sapiens).
Data set [9] has as its target p38αR186A (Homo sapiens).
Data set [10] addresses ATF2 (ProQinase) (Homo sapiens (Human)) (UniProt P15336).

T4 sequence (Q16539 whole entry R189A): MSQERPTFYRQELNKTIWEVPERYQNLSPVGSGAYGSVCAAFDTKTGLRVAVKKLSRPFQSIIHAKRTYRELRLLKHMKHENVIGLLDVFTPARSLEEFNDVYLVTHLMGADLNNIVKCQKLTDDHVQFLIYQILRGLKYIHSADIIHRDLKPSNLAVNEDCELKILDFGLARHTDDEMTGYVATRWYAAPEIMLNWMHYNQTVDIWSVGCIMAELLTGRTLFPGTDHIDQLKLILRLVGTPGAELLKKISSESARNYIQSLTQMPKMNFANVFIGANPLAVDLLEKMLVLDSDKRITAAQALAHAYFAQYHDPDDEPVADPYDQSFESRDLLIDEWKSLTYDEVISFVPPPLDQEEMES
T1 sequence (Q16539 whole entry): as the sequence (Q16539 whole entry R189A) above, with A189R counted along it
T3 sequence (Q16539 whole entry): as the sequence (Q16539 whole entry R189A) above, with A189R counted along it
T2 sequence (Q16539 whole entry R186A): as the sequence (Q16539 whole entry R189A) above, with R186A, A189R counted along it

For `COc1ccccc1NC(=O)C[C@H](NCCCO)C(=O)O` [Compound 3], the inhibition at 100 µM in [1] came to 17%.

With `Nc1ccc(OCC(O)C[n+]2ccc(CCS(=O)(=O)[O-])cc2)cc1` (stereo not shown) [Compound 4], the inhibition at 10 µM in data set [1] amounted to 8%.

Take `CC(C)n1nnnc1C(c1ccc(O)cc1)N1CCN(c2nc3ccccc3s2)CC1` (stereo not shown) [Compound 5]: the inhibition at 10 µM in data set [1] was 28%.

Regarding `CCOCCCNc1nc2nnnn2c2sc3c(c12)CCN(Cc1ccccc1)C3` [Compound 6], the inhibition at 10 µM in data set [1] was 107%.

For `Oc1nc(N/N=C/c2ccc3c(c2)OCO3)nc(N2CCOCC2)n1` [Compound 7], the inhibition at 10 µM in data set [1] was 16%.

As to `OCCOc1nc(OCCO)nc(OCCO)n1` [Compound 8], in data set [2], the “% of inflammatory mediators production in the presence of compounds, IL6” value is given as 66.5%; the “% of inflammatory mediators production in the presence of compounds, IL8” value is recorded as 83.4%; the “% of inflammatory mediators production in the presence of compounds, MCP-1” value stood at 75.4%. Further, in [1], the inhibition at 100 µM amounted to 20%.

`O=S(=O)(c1cnccc1N1CCN(CCO)CC1)N1CCOCC1` [Compound 11]: the inhibition at 10 µM in [1] came out at 1%.

Regarding `CCOC(=O)c1ccc(Nc2nc3nonc3nc2Nc2ccc(Oc3ccncc3)cc2)cc1` [Compound 27], the inhibition at 10 µM in [3] came out at 72%; in data set [4], 76%; in data set [5], 88%; in data set [7], 47%. Further, the inhibition at 0.1 µM in data set [4] was 28%. Moreover, the inhibition at 1 µM in data set [4] is 58%. Moreover, the Cell survival in [6] (0.1 uM) is 103%; in data set [6] (1 uM), 99%; in data set [6] (10 uM), 72%.

For the compound `CCOC(=O)c1ccc(Nc2nc3nonc3nc2N2CCC(Sc3ccc(Cl)cc3)CC2)cc1` [Compound 28], the inhibition at 10 µM in data set [3] is 41%; in data set [4], 36%; in data set [5], 86%; in data set [7], 27%. Besides, the inhibition at 0.1 µM in [4] was determined as 17%. Moreover, the inhibition at 1 µM in [4] worked out at 24%. In addition, the Cell survival is recorded as 88% in [6] (0.1 uM), 87% in data set [6] (1 uM) and 88% in data set [6] (10 uM).

As for `O=C(O)c1ccc(Nc2nc3nonc3nc2N2CCC(Cc3ccccc3)CC2)cc1` [Compound 29], the inhibition at 10 µM in data set [3] was found to be 21%; in [4], 44%; in data set [5], 23%; in data set [7], 6%. For the same compound, the inhibition at 0.1 µM in data set [4] worked out at 7%. For the same compound, in data set [4], the inhibition at 1 µM amounted to 11%. In addition, the Cell survival in [6] (0.1 uM) is given as 103%; in data set [6] (1 uM), 103%; in data set [6] (10 uM), 92%.

With `O=C([O][Na+])c1ccc(Nc2nc3nonc3nc2N2CCC(Cc3ccccc3)CC2)cc1` [Compound 30], the inhibition at 10 µM was 19% in [3], 41% in [4], 25% in data set [5] and 9% in data set [7]. For the same compound, the inhibition at 0.1 µM in data set [4] was found to be 12%. The inhibition at 1 µM in data set [4] amounted to 16%. Also, the Cell survival in data set [6] (0.1 uM) was determined as 99%; in [6] (1 uM), 97%; in data set [6] (10 uM) it was 93%.

Turning to `COC(=O)c1ccc(Nc2nc3nonc3nc2N2CCC(Oc3ccc(Cl)cc3)CC2)cc1` [Compound 31], the inhibition at 10 µM in data set [3] was 35%; in data set [4] it was 60%; in data set [5] it was 84%; in data set [7] it was 27%. Further, the inhibition at 0.1 µM in [4] was 20%. In addition, the inhibition at 1 µM in data set [4] worked out at 43%. The values for the Cell survival in data set [6] (0.1 uM), in data set [6] (1 uM) and in [6] (10 uM) were 101%, 100% and 92%, respectively.

Consider `CCOC(=O)N1CCN(C2=Nc3nnnn3C3CC4CN(Cc5ccccc5)CCC4C23)CC1` (stereo not shown) [Compound 32], for which the “% of inflammatory mediators production in the presence of compounds, IL6” value in data set [2] came out at 52.4%. The “% of inflammatory mediators production in the presence of compounds, IL8” value in [2] amounted to 34.8%. Also, the “% of inflammatory mediators production in the presence of compounds, MCP-1” value in data set [2] is on record as 22.7%. Also, the inhibition at 10 µM in [3] came to 17%; in [4], 21%; in data set [5], 23%; in data set [7] it was 9%. Moreover, the Cell survival in data set [6] (10 uM) is 99%.

For `CCOC(=O)c1ccc(Nc2nc3nonc3nc2N2CCC(Oc3ccncc3)CC2)cc1` [Compound 33], the inhibition at 10 µM in data set [3] was 23%; in [4], 62%; in [5], 47%; in data set [7] it was 19%. Moreover, the inhibition at 0.1 µM in [4] is 21%. In data set [4], the inhibition at 1 µM worked out at 46%. Moreover, the Cell survival in [6] (0.1 uM) stood at 100%; in [6] (1 uM), 99%; in data set [6] (10 uM), 97%.

“MKK6 (ProQinase) (from UniProt P52564) (enzyme)”: the values for the kinase activity of the cascade MKK6/p38α/ATF2 (ADP-glo kit) (% related to wild type protein) in data set [8] and in data set [9] were 4.8 and 15.5, respectively.

Compound p38αR186A (enzyme) displayed a kinase activity (ADP-glo kit) (% related to wild type protein) in [10] of 15.5.

For the compound p38αR189A (enzyme), the kinase activity (ADP-glo kit) (% related to wild type protein) in data set [10] is 4.8.
